Experiments:
[1] = target: Bacteroids fragilis O-GlcNAcase (Bacteroides fragilis, UniProt Q5L8V6); assay: Michaelis-Menten/Lineweaver-Burk kinetic inhibition of O-GlcNAcase with 4MU-NAG substrate; assay type: biochemical
Procedure: Bacteroids fragilis O-GlcNAcase, which is highly homologous to human O-GlcNAcase, was prepared as follows. Based on the genome sequence of B. fragilis (NCTC 9343) as disclosed in GenBank accession no. CR626927 (Oct. 23, 2008), a DNA fragment encoding the B. fragilis O-GlcNAcse was amplified via polymerase chain reaction (PCR), using the primers of: 5′-[…]-3′ (SEQ ID NO:1) (forward primer) and 5′-[…]-3′ (SEQ ID NO:2) (reverse primer). The PCR product was cloned into pGEM-T Easy vector (Promega) via cloning sites Nde1 and Xho1 and then subcloned into pET21b vector to produce expression plasmid pOGA, which encodes a fusion protein including O-GlcNAcase and a His6 tag at the C-terminus
Plasmid pOGA was transformed into E. coli BL21 (DE3) cells and a positive transformant was cultured in Luria-Bertani (LB) medium with ampicillin (100 μg/mL) overnight. The E. coli culture, transferred to fresh LB medium, was incubated at 37° C. and, when A600 of the culture reached 0.6, isopropyl-β-D-thiogalactopyranoside (final conc: 250 μM) was added to induce expression of O-GlcNAcse. The induced cells were further cultured at 16° C. overnight, harvested, and disrupted to produce a cell lysate. Upon centrifugation, the supernatant thus obtained was loaded onto a nickel-affinity column. After elution, a fraction containing O-GlcNAcse was collected and the enzyme contained therein was further purified by gel filtration using a Superdex 6 column. See Dennis et al., Nat Struct Mol Biol 2006, 13: 365-71. The purified protein was concentrated using a 10 kDa-cutoff concentrator and dialyzed against 20 mM HEPES (pH 7.5).
The reaction conditions for each enzyme are shown below:
O-GlcNAcase: reaction mixture (0.5 nM O-GlcNAcase (200 μL) in 50 mM citric acid, 100 mM NaCl, 0.1% BSA, 0.05-1.5 mM substrate, pH 4.25) was incubated at 30° C. for 25 minutes. The enzyme activity at different time points was determined by measuring the levels of the fluorescent signals (excitation wavelength: 360 nm; emission wavelength: 460 nm) released from 4-methylumbelliferone, a product of the enzyme reaction.
In these reactions, the substrate concentrations were three to five fold of the concentration used for determining KM (absent compounds) and the ratio between the enzyme and the compound was 0.1-0.5 nM to 0.3 nM-200 uM. The data thus obtained were analyzed by the Lineweaver-Burk plot. The K1 values were determined by the double reciprocal plot (1/V vs. 1/[S]). More specifically, the Km values for each enzyme in the presence of one of the test compounds first determined and these values were further plotted in view of the concentrations of the compound. K1 was determined by calculating the negative value of the resulting x-intercept. The selectivity of each compound was calculated by the formula: K1 O-GlcNAcase/K1 Hex B.

human Hex B (FLAG-HexB) = target: T1, human Hex B (FLAG-HexB) (Homo sapiens, UniProt P07686); assay: In situ immunostaining of Compound 5 and FLAG-HexB in 293T/FLAG-HexB cells; assay type: cell-based; conditions: confocal immunofluorescence, anti-FLAG and anti-biotin antibodies
T1 construct: FLAG (N); expressed in transfected cells
T1 sequence (P07686 122-556): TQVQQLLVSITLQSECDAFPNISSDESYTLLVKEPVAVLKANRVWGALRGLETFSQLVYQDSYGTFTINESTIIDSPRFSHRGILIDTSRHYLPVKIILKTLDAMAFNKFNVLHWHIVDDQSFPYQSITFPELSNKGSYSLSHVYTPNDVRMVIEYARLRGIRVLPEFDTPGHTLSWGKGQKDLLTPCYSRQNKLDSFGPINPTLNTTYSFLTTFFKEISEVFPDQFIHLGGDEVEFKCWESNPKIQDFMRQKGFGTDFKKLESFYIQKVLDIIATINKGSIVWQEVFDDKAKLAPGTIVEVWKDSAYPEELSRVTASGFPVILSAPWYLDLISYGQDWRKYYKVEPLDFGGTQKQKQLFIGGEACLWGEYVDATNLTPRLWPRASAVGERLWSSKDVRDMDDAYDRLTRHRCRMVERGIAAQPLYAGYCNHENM
Procedure: A DNA fragment encoding human Hex B was amplified by PCR and cloned into pCMV-Tag 2B vector (Stratagene) to produce FLAG-tagged HexB expression plasmid (pFLAG-HexB). This plasmid was introduced into 293T cells to establish a cell line stably expressing FLAG-HexB. Briefly, 293T cells were maintained in Dulbecco's modified Eagle's medium (DMEM) supplemented with 10% (by volumn) heat inactivated fetal bovine serum (FBS), 2 mM glutamine, 100 units/mL penicillin and 100 μg/mL streptomycin at 37° C. in a 5% CO2 atmosphere. These cells were transfected with expression plasmid pFLAG-HexB and plasmid pBabe-puro (carrying a puromycin resistance gene) at a molar ratio of 30-40:1. 8 hours later, the transfected cells were fed with fresh medium and incubated for 16 h. These cells were then cultured in puromycin-containing (2 μg/mL) medium for 2-3 weeks to screen for puromycin-resistant clones.
Binding of Compound 5 to HexB was first examined by in situ immunostaining as follows. 293T/FLAG-HexB cells were grown on glass coverslips in the presence of biotin-conjugated Compound 5 and fixed in 4% paraformaldehyde for 15 min. […]

Chain of Bacteroids fragilis O-GlcNAcase (Q5L8V6 entry or part of it): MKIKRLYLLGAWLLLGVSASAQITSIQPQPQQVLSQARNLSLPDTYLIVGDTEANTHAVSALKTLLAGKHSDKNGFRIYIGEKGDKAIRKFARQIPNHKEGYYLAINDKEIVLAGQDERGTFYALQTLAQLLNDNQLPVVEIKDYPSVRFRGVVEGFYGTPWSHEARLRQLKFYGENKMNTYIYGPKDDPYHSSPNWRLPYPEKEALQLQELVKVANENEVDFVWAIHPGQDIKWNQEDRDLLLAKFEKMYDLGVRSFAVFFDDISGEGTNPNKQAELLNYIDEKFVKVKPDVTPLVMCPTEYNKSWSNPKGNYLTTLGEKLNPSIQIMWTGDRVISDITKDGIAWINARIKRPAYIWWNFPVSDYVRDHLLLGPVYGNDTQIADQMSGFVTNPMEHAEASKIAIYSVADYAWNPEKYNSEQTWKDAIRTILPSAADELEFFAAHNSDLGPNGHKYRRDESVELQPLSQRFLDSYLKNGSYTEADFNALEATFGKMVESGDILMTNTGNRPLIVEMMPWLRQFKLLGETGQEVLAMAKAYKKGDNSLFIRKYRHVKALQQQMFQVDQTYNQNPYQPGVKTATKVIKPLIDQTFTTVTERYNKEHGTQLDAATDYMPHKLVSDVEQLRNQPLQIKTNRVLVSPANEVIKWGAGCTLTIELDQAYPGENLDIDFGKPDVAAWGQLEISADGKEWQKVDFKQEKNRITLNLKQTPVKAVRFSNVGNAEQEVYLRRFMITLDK

## CC(=O)NC1CN(CCCCCCCNC(=O)CCCCC2SCC3NC(=O)NC32)C(CO)C(O)C1O (stereo not drawn) [Compound 5]
[1]
  Ki: 69.6 ± 1.77 µM
[1]; Bacteroids fragilis O-GlcNAcase over human HEX B, Table 1
  Selectivity (KI O-GlcNAcase/KI HEX): 2,600
Human Hex B (FLAG-HexB)
  co-localization of FLAG-HexB and compound: co-localized in the cytoplasm
